Laboratory results taken from patent US8217167B2, “Phenanthrylphenol linked pyrrolo [2, l-c] [l, 4] benzodiazepine hybrids as potential antitumour agents and process for the preparation thereof” (Council of Scientific & Industrial Research, priority 2008, dated 2012).

Key:
[1] = system: Leukemia cancer cell lines; assay: NCI in vitro anticancer activity (SRB assay), Leukemia panel; assay type: cell-based; conditions: Homo sapiens
Method: (§1) The compound 6a was evaluated for in vitro anticancer activity against sixty human tumour cells derived from nine cancer panels (leukemia, non-small-cell lung, colon, CNS, melanoma, ovarian, prostate, renal and breast cancer) as shown in Table 4. For compound 6a, dose response curves for each cell line were measured at a minimum of five concentrations at 10 fold dilutions. A protocol of 48 h continuous drug exposure was used and a sulforhodamine B (SRB) protein assay was used to estimate cell viability or growth. The concentration causing 50% cell growth inhibition (GI50), total cell growth inhibition (TGI 0% growth) and 50% cell death (LC50, […]) compared with the control was calculated.
(§2) Each cancer type represents the average of six to nine different cancer cell lines.

[2] = system: Renal cancer cell lines; assay: NCI in vitro anticancer activity (SRB assay), Renal panel; assay type: cell-based; conditions: Homo sapiens
Method: as §1, §2

[3] = system: Melanoma cancer cell lines; assay: NCI in vitro anticancer activity (SRB assay), Melanoma panel; assay type: cell-based; conditions: Homo sapiens
Method: as §1, §2

[4] = system: Colon cancer cell lines; assay: NCI in vitro anticancer activity (SRB assay), Colon panel; assay type: cell-based; conditions: Homo sapiens
Method: as §1, §2

[5] = system: Ovarian cancer cell lines; assay: NCI in vitro anticancer activity (SRB assay), Ovarian panel; assay type: cell-based; conditions: Homo sapiens
Method: as §1, §2

[6] = system: Prostate cancer cell lines; assay: NCI in vitro anticancer activity (SRB assay), Prostate panel; assay type: cell-based; conditions: Homo sapiens
Method: as §1, §2

[7] = system: Non-small-cell-lung cancer cell lines; assay: NCI in vitro anticancer activity (SRB assay), Non-small-cell-lung panel; assay type: cell-based; conditions: Homo sapiens
Method: as §1, §2

[8] = system: duplex-form calf thymus DNA (CT-DNA); assay: Thermal denaturation studies with calf thymus DNA; assay type: binding; conditions: [PBD]:[DNA] molar ratio 1:5, CT-DNA 100 μM, ligand 20 μM, sodium phosphate buffer pH 7.00; for ΔTm after incubation at 37° C. for 0 h: 0 h incubation at 37° C.; for ΔTm after incubation at 37° C. for 18 h: 18 h incubation at 37° C.
Method: Compounds have been subjected to thermal denaturation studies with duplex-form calf thymus DNA (CT-DNA) using a modification of a reported procedure (Newman, M. S. Carcinog-compr. Surv. 1976, 1, 203; (b) Hecht, S. S.; Loy, M.; Hoffman, Carcinog-compr. Surv. 1976, 1, 325). Working solutions in aqueous buffer (10 mM NaH2PO4/Na2HPO4, 1 mM Na2EDTA, pH 7.00+0.01) containing CT-DNA (100 μm in phosphate) and the PBD (20 μm) have been prepared by addition of concentrated PBD solutions in DMSO to obtain a fixed [PBD]/[DNA] molar ratio of 1:5. The DNA-PBD solutions have been incubated at 37° C. for 0 and 18 h prior to analysis. Samples have been monitored at 260 nm using a Beckman DU-800 spectrophotometer fitted with high performance temperature controller, and heated at 1° C. min^−1 in the 40-110° C. range. DNA helix→coil transition temperatures (Tm) have been obtained from the maxima in the d(A260)/dT derivative plots. Drug-induced alterations in DNA melting behavior are given by: ΔTm=Tm(DNA+PBD)−Tm(DNA alone), where the Tm value for the PBD-free CT-DNA is 69.1±0.01.
The DNA binding activity for these new C8-linked phenanthrylphenol-PBD hybrids has been examined by thermal denaturation studies using calf thymus (CT) DNA. […] The data for the compounds 6a-c is included in Table 1 for comparison.

[9] = system: CNS cancer cell lines; assay: NCI in vitro anticancer activity (SRB assay), CNS panel; assay type: cell-based; conditions: Homo sapiens
Method: as §1, §2

[10] = system: Breast cancer cell lines; assay: NCI in vitro anticancer activity (SRB assay), Breast panel; assay type: cell-based; conditions: Homo sapiens
Method: as §1, §2

[11] = system: sixty human tumour cells derived from nine cancer panels; assay: NCI in vitro anticancer activity (SRB assay), mean graph midpoints over sixty cell lines; assay type: cell-based
Method: as §1

[12] = system: Lung A-549; assay type: cell-based; conditions: human
From the text: (§3) The compounds 6a-c (n=1-3) were examined for preliminary in vitro cytotoxicity on six cell lines, among these compound's 6a has shown promising activity as shown in Table 2 and was further taken up detailed in vitro anticancer activity at the National Cancer Institute, Maryland, USA.

[13] = system: Colon HCT-15; assay type: cell-based; conditions: human
From the text: as §3

[14] = system: Liver HEP-2; assay type: cell-based; conditions: human
From the text: as §3

[15] = system: Colon 502713; assay type: cell-based; conditions: human
From the text: as §3

[16] = system: Neuroblastoma IMR-32; assay type: cell-based; conditions: human
From the text: as §3

[17] = system: Ovary OVCAR-5; assay type: cell-based; conditions: human
From the text: as §3

[18] = 48 h, read-out: Log10 LC50 (concentration in mol/L causing 50% lethality) (converted)

## COc1cc2c(cc1OCCCOc1ccc(-c3cc4ccccc4c4ccccc34)cc1)N=C[C@@H]1CCCN1C2=O [Compound 6a, (11aS)-7-methoxy-8-3-[4-(9-phenanthryl)phenoxy]propoxy-2,3,5,11a-tetrahydro-1H-benzo[e]pyrrolo[1,2-a][1,4]diazepin-5-one]
[1]; [18]
  CC50: 15100 nM
[1]; Leukemia panel average, 48 h exposure, SRB, read-out: Log10 GI50 (concentration in mol/L) (converted)
  GI50: 195 nM
[2]; [18]
  LC50 (50% lethal concentration): 3630 nM
[2]; Renal panel average, 48 h exposure, SRB, read-out: Log10 GI50 (concentration in mol/L) (converted)
  GI50: 490 nM
[3]; [18]
  LC50: 4680 nM
[3]; Melanoma panel average, 48 h exposure, SRB, read-out: Log10 GI50 (concentration in mol/L) (converted)
  GI50: 692 nM
[4]; [18]
  CC50: 4900 nM
[4]; Colon panel average, 48 h exposure, SRB, read-out: Log10 GI50 (concentration in mol/L) (converted)
  GI50: 776 nM
[5]; [18]
  CC50: 3720 nM
[5]; Ovarian panel average, 48 h exposure, SRB, read-out: Log10 GI50 (concentration in mol/L) (converted)
  GI50: 501 nM
[6]; [18]
  LC50 (concentration causing 50% tumour cell death): 3890 nM
[6]; Prostate panel average, 48 h exposure, SRB, read-out: Log10 GI50 (concentration in mol/L) (converted)
  GI50: 398 nM
[7]; [18]
  LC50: 5370 nM
[7]; Non-small-cell-lung panel average, 48 h exposure, SRB, read-out: Log10 GI50 (concentration in mol/L) (converted)
  GI50: 776 nM
[8]
  ΔTm after incubation at 37° C. for 0 h: 1.0 °C
  ΔTm after incubation at 37° C. for 18 h: 1.8 °C
[9]; [18]
  LC50: 4680 nM
[9]; CNS panel average, 48 h exposure, SRB, read-out: Log10 GI50 (concentration in mol/L) (converted)
  GI50: 813 nM
[10]; [18]
  LC50 (50% lethal concentration): 8710 nM
[10]; Breast panel average, 48 h exposure, SRB, read-out: Log10 GI50 (concentration in mol/L) (converted)
  GI50: 339 nM
[11]; 48 h continuous drug exposure, SRB assay, mean over human tumour cell lines
  Log10 TGI mean graph midpoint (MG_MID): −5.76
[11]; 48 h continuous drug exposure, SRB assay, mean over human tumour cell lines, read-out: Log10 GI50 mean graph midpoint (MG_MID) (converted)
  GI50: 525 nM
[11]; Homo sapiens, 48 h, read-out: Log10 LC50 mean graph midpoint (MG_MID) (converted)
  CC50: 5500 nM
[12]
  Preliminary in vitro cytotoxicity data, Lung A-549: 88
[13]
  Preliminary in vitro cytotoxicity data, Colon HCT-15: 99
[14]
  Preliminary in vitro cytotoxicity data, Liver HEP-2: 58
[15]
  Preliminary in vitro cytotoxicity data, Colon 502713: 69
[16]
  Preliminary in vitro cytotoxicity data, Neuroblastoma IMR-32: 85
[17]
  Preliminary in vitro cytotoxicity data, Ovary OVCAR-5: 98

## COc1cc2c(cc1OCCCCOc1ccc(-c3cc4ccccc4c4ccccc34)cc1)N=C[C@@H]1CCCN1C2=O [Compound 6b, (11aS)-7-methoxy-8-4-[4-(9-phenanthryl)phenoxy]butoxy-2,3,5,11a-tetrahydro-1H-benzo[e]pyrrolo[1,2-a][1,4]diazepin-5-one]
[8]
  ΔTm after incubation at 37° C. for 0 h: 0.3 °C
  ΔTm after incubation at 37° C. for 18 h: 0.5 °C
[12]
  Preliminary in vitro cytotoxicity data, Lung A-549: 50
[13]
  Preliminary in vitro cytotoxicity data, Colon HCT-15: 77
[14]
  Preliminary in vitro cytotoxicity data, Liver HEP-2: 49
[15]
  Preliminary in vitro cytotoxicity data, Colon 502713: 72
[16]
  Preliminary in vitro cytotoxicity data, Neuroblastoma IMR-32: 67
[17]
  Preliminary in vitro cytotoxicity data, Ovary OVCAR-5: 93

## COc1cc2c(cc1OCCCCCOc1ccc(-c3cc4ccccc4c4ccccc34)cc1)N=C[C@@H]1CCCN1C2=O [Compound 6c, (11aS)-7-methoxy-8-(5-[4-(9-phenanthryl)phenoxy]pentyloxy)-2,3,5,11a-tetrahydro-1H-benzo[e]pyrrolo[1,2-a][1,4]diazepin-5-one]
[8]
  ΔTm after incubation at 37° C. for 0 h: 0.1 °C
  ΔTm after incubation at 37° C. for 18 h: 0.2 °C
[12]
  Preliminary in vitro cytotoxicity data, Lung A-549: 36
[13]
  Preliminary in vitro cytotoxicity data, Colon HCT-15: 79
[14]
  Preliminary in vitro cytotoxicity data, Liver HEP-2: 65
[15]
  Preliminary in vitro cytotoxicity data, Colon 502713: 74
[16]
  Preliminary in vitro cytotoxicity data, Neuroblastoma IMR-32: 73
[17]
  Preliminary in vitro cytotoxicity data, Ovary OVCAR-5: 98

## COc1cc2c(cc1O)N=CC1CCCN1C2=O (centres unmarked) [DC-81, reference compound]
[8]
  ΔTm after incubation at 37° C. for 0 h: 0.3 °C
  ΔTm after incubation at 37° C. for 18 h: 0.7 °C
